{"source": "patent US6939863B2", "about": "“Prevention of atherosclerosis and restenosis” (priority 2002, dated 2005); on Anti-coagulation: key: '+' represents the ability; a '−' represents the inability of conversion from a non-contracile phenotype to a contractile phenotype in an in vitro condition; A '↓' represents decrease; a '?' represents no data is available; on Anti-inflammation: key: '+' represents the ability; a '−' represents the inability of conversion from a non-contracile phenotype to a contractile phenotype in an in vitro condition; A '↓' represents decrease; a '?' represents no data is available; on Endothelial cellular function: key: '+' represents the ability; a '−' represents the inability of conversion from a non-contracile phenotype to a contractile phenotype in an in vitro condition; A '↓' represents decrease; a '?' represents no data is available; on Phenotype change: key: '+' represents the ability; a '−' represents the inability of conversion from a non-contracile phenotype to a contractile phenotype in an in vitro condition; A '↓' represents decrease; a '?' represents no data is available", "key": {"[1]": {"system": "endothelial cells", "details": "summary table; cited from earlier work"}, "[2]": {"system": "smooth muscle cells", "details": "conversion from non-contractile to contractile phenotype in vitro; cited from earlier work"}, "[3]": {"details": "summary table; cited from earlier work"}, "[4]": {"details": "summary table; cited from earlier work", "remark": "listed apart in the source"}, "[5]": {"system": "restenosis", "details": "summary table; cited from earlier work"}, "[6]": {"system": "restenosis", "details": "summary table; cited from earlier work", "remark": "listed apart in the source"}, "[7]": {"system": "restenosis", "details": "summary table; cited from earlier work", "remark": "listed apart in the source"}, "[8]": {"system": "rat vascular smooth muscle cells", "assay": "Vascular smooth muscle cell proliferation (cell number)", "format": "cell-based", "details": "concentration-dependent; PTU 0.05-5 millimolar, methimazole 0.01-1 millimolar", "protocol": "(§1) Rat vascular smooth muscle cells (VSMCs) (passages 5-10) were prepared from Sprague-Dawley rats and cultured in Dulbecco's modified Eagle's medium (DMEM) supplemented with 10% fetal bovine serum (FBS) as previously described (Kirschenlohr et al, in “Human Cell Culture Protocols”, New Jersey, Humana Press Inc, 1996, pp. 318-335). Human endothelial cells from umbilical veins were prepared as described (Morgan, in “Human Cell Culture Protocols”, New Jersey, Humana Press Inc, 1996, pp. 101-152)\n(§2) Rat vascular smooth muscle cells and human endothelial cells were plated at a density of 10,000 cells per square centimeter in 24-well plates. After 24 hours, cells at 70-80% confluency were treated with propylthiouracil dissolved in 100% dimethylsulfoxide (DMSO) at final concentrations of from 0.05 millimolar to 15 millimolar, or with methimazole (Sigma, St. Louis, Mo.) dissolved in water at the concentrations of from 0.01 millimolar to 1 millimolar for 24-72 hours. Cell numbers were visually counted using a hemocytometer. For the thymidine incorporation study, cells were deprived of serum for 36 hours and labeled with [methyl-^3H]thymidine at […] per milliliter for 12-24 hours after synchronization. Thymidine incorporation was then measured (Newby and George, 1996, Curr. Opin. Cardiol., 11:547). Effects of propylthiouracil and methimazole on the number of vascular smooth muscle cells and human endothelial cells and thymidine incorporation by vascular smooth muscle cells were each expressed as a percentage of the number and thymidine incorporation of control cells maintained in medium containing 0.1% DMSO as vehicle."}, "[9]": {"system": "rat vascular smooth muscle cells", "assay": "[methyl-3H]thymidine incorporation into VSMCs", "format": "cell-based", "details": "concentration-dependent", "protocol": "as §1, §2"}, "[10]": {"system": "collagen expression", "details": "summary table; cited from earlier work"}}}
{"compound": "Heparin", "values": [{"measurement": "Endothelial cellular function", "setting": "[1]", "value": "−"}, {"measurement": "Phenotype change", "setting": "[2]", "value": "−"}, {"measurement": "Anti-coagulation", "setting": "[3]", "value": "+"}, {"measurement": "Anti-inflammation", "setting": "[4]", "value": "−"}, {"measurement": "Effect on animal models of restenosis, Rat", "setting": "[5]", "value": "+"}, {"measurement": "Effect on animal models of restenosis, Pig", "setting": "[6]", "value": "+"}, {"measurement": "Effect on restenosis, Human", "setting": "[7]", "value": "−"}]}
{"compound": "CC(=O)O[C@H]1C(=O)[C@@]2(C)[C@H]([C@H](OC(=O)c3ccccc3)[C@]3(O)C[C@H](OC(=O)[C@H](O)[C@@H](NC(=O)c4ccccc4)c4ccccc4)C(C)=C1C3(C)C)[C@]1(OC(C)=O)CO[C@@H]1C[C@@H]2O", "note": "[Paclitaxel]", "values": [{"measurement": "Endothelial cellular function", "setting": "[1]", "value": "−"}, {"measurement": "Effect on animal models of restenosis, Rat", "setting": "[5]", "value": "+"}, {"measurement": "Effect on animal models of restenosis, Pig", "setting": "[6]", "value": "+"}, {"measurement": "Effect on restenosis, Human", "setting": "[7]", "value": "+"}]}
{"compound": "Cn1cc[nH]c1=S", "note": "[methimazole]", "values": [{"measurement": "Inhibition of growth/proliferation of VSMCs", "setting": "[8]", "value": "but not methimazole (MMI), significantly inhibited"}, {"measurement": "Inhibition of thymidine incorporation into VSMCs", "setting": "[9]", "value": "but not methimazole (MMI), significantly inhibited"}]}
{"compound": "CC1=C(/C=C/C(C)=C/C=C/C(C)=C/C(=O)O)C(C)(C)CCC1", "note": "[All-trans retinoic acid]", "values": [{"measurement": "Endothelial cellular function", "setting": "[1]", "value": "+"}, {"measurement": "Collagen expression", "setting": "[10]", "value": "↑"}, {"measurement": "Phenotype change", "setting": "[2]", "value": "+"}, {"measurement": "Anti-coagulation", "setting": "[3]", "value": "−"}, {"measurement": "Anti-inflammation", "setting": "[4]", "value": "−"}, {"measurement": "Effect on animal models of restenosis, Rat", "setting": "[5]", "value": "+"}]}
